Experimental data from patent US20100209496A1, “LIQUID AND SEMI-SOLID PHARMACEUTICAL FORMULATIONS FOR ORAL ADMINISTRATION OF A SUBSTITUTED AMIDE” (priority 2006, published 2010).

Legend:
[1] = Compound I Form I solubility in various liquid vehicles; type: physicochemical; conditions: aqueous
[2] = Bioavailability (drug plasma levels) from liquid-filled capsule dosage form; type: in vivo; conditions: compound in solution in liquid and semi-solid excipients, versus crystalline solid
[3] = Bioavailability when dosed as a crystalline solid (dogs); type: in vivo
[4] = Bioavailability when dosed as a crystalline solid (rats); type: in vivo

For “3-[(3aR,4R,5S,7aS)-5-{(1R)-1-[3,5-bis(Trifluoromethyl)phenyl]ethoxy}-4-(4-fluorophenyl)-octahydro-2H-isoindol-2-yl]cyclopent-2-en-1-one [Compound I]”, the aqueous solubility [1] was less than 0.2 µg/mL, the bioavailability [2] was “increased dramatically” and the bioavailability [3] was “poorly bioavailable”. The bioavailability [4] was “poorly bioavailable”.
